Test results reported in patent US9675591B2, “Methods for treating seizure disorders and pain” (THE REGENTS OF THE UNIVERSITY OF CALIFORNIA, priority 2013, dated 2017).
Like-named read-outs stand apart in the source and are kept apart here.

Legend:
[1] = system: pentylenetetrazole-induced seizures; assay: Subcutaneous Metrazol seizure test (scMET); type: in vivo
Protocol: A dose of subcutaneous pentylenetetrazole (Metrazole, MET) which induces convulsions in 97% of animals (CD97: 85 mg/kg mice or 56.4 mg/kg rats) was injected into a loose fold of skin at the neck. Animals were placed in isolation cages and observed for 30 min for the occurrence of clonic spasms persisting for at least 5 s.

Nav1.5 = Nav1.5 (Homo sapiens (Human), UniProt Q14524); assay: Voltage-clamp, Nav1.5 in HEK-293 cells; type: cell-based
Protocol: (§1) All experiments were conducted at room temperature (22-24° C.) with an EPC-10 amplifier and Pulse software (HEKA, Lambrecht/Pfalz, Germany) in the whole-cell mode of the patch-clamp technique. Human embryonic kidney (HEK)-293 cell lines stably expressing hNav1.1, hNav1.5, hNav1.7 channels (generously provided by Dr. Christopher Lossin, University of California Davis), hNav1.4 (Frank Lehmann-Horn, University of Ulm), or hKv2.1 channels (James Trimmer, University of California Davis) were bathed in extracellular solution containing (in mM): 160 NaCl; 4.5 KCl; 1 MgCl2; 2 CaCl2; 10 HEPES [pH was adjusted to 7.4 using NaOH (310 mOsm)]. Pipettes were filled with intracellular solution containing (in mM): 145 KF; 2 MgCl2; 10 ethylene glycol tetraacetic acid; 10 HEPES (pH adjusted to 7.2 with KOH; 300 mOsm). Neuroblastoma N1E-115 cells (ATCC, Manassa, Va., USA) expressing Nav1.2 were patched with a CsF internal solution consisting of (in mM): 10 NaF; 110 CsF; 20 CsCl; 2 ethylene glycol tetraacetic acid; 10 HEPES (CsOH to pH 7.35; 300 mOsm). All pipette tip resistances were 2-4 MΩ. Series resistances of 3-10 MΩ were compensated 40-80%. All cells were voltage-clamped to a holding potential of −90 mV unless otherwise specified. The sampling frequency was 5 kHz. Na^+ currents were elicited by 30-ms pulse to 0 mV from −90 mV applied every 10 s. […]

Kv2.1 = Kv2.1 (Homo sapiens (Human), UniProt Q14721); assay: Voltage-clamp, Kv2.1 in HEK-293 cells; type: cell-based; settings: read-out: EC50 or IC50, Kv2.1
Protocol: as §1

mechanical allodynia = assay: Pain assay, partial ligation of the sciatic nerve (Von Frey); type: in vivo, rats; settings: 5 mg/kg, 2 hour time point
Protocol: Rats were anesthetized with sodium pentobarbital, the upper thigh shaved and wiped off with ethanol and betadine. A small incision was made in the skin and the underlying muscle separated to expose the sciatic nerve. Approximately ⅓ to ½ of the nerve was tied off by passing a needle (7.0) and nylon suture through the nerve. The muscle and skin incision were afterwards closed off and the animals kept warm until they had recovered from the anesthesia. This procedure was performed on the right side (ipsilateral) while a sham surgery exposing but not ligating the nerve was performed on the left hind leg (contralateral). After 7 days of recovery animals were tested for the development of mechanical allodynia (abnormal response to a non-noxious stimulus) by putting them in a bottomless plexiglass box placed on a wire mesh (¼″) platform. After 30-60 min of acclimatization a baseline mechanical sensitivity was determined by applying a series of calibrated Von Frey fibers perpendicularly to the plantar surface of each hind paw and holding it there for about 6 s with enough force to slightly bend the fiber. […] This was repeated until a 50% threshold for withdrawal could be determined. The allodynic threshold was then redetermined after i.p. application of SKA-19 at 5 mg/kg at the time-to-peak effect determined in the acute seizure models.

[2] = Pharmacokinetics in Sprague-Dawley rats; type: in vivo

Nav1.5, sequence (Q14524 whole entry): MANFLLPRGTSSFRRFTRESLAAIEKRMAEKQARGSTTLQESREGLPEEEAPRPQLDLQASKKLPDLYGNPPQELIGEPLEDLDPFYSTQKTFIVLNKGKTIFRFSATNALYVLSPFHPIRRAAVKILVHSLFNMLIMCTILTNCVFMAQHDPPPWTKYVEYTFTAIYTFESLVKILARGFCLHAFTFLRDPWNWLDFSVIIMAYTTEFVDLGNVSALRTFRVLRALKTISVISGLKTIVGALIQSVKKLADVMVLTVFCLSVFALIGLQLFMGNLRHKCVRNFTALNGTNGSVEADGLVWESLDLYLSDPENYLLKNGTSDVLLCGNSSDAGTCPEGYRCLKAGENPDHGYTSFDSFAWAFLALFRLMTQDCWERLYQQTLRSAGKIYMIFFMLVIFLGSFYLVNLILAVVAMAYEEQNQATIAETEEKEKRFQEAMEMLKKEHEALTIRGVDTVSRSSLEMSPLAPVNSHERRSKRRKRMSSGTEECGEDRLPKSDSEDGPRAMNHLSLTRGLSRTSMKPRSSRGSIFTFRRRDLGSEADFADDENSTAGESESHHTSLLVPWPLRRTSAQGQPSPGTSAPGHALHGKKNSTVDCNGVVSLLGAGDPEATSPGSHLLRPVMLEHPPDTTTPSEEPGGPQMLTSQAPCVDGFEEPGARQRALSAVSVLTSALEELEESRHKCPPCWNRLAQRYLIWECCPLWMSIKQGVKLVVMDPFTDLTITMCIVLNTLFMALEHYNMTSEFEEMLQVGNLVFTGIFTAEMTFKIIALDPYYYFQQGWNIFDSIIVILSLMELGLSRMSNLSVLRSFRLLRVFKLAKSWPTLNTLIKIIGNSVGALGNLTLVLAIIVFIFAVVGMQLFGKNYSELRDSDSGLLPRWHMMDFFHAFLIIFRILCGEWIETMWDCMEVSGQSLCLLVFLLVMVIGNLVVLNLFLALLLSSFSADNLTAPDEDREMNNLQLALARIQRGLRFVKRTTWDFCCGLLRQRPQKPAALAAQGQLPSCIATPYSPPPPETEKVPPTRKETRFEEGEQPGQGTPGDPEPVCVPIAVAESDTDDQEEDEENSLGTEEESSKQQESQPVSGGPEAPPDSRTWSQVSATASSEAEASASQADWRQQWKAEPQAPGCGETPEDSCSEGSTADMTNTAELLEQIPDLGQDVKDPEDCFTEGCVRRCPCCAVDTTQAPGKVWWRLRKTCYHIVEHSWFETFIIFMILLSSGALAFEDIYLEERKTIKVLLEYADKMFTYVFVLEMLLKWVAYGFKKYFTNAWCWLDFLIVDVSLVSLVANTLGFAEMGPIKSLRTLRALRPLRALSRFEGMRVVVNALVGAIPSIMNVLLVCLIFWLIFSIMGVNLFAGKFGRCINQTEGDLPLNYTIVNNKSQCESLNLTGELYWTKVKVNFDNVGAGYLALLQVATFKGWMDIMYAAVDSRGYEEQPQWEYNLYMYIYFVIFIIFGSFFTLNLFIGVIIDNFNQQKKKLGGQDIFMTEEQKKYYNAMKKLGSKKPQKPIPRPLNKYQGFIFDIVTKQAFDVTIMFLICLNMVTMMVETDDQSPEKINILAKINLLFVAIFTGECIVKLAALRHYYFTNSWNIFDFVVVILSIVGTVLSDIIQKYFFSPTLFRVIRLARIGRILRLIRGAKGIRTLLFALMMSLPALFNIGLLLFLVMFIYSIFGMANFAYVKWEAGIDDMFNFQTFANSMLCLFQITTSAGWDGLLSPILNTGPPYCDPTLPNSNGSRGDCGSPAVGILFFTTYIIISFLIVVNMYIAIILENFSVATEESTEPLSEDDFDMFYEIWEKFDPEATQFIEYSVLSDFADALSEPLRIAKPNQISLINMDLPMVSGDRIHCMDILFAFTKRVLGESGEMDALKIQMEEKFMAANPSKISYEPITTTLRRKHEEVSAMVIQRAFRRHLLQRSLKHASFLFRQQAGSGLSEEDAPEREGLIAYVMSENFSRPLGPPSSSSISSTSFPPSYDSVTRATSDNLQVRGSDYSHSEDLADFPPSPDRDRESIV
Kv2.1, sequence (Q14721 whole entry): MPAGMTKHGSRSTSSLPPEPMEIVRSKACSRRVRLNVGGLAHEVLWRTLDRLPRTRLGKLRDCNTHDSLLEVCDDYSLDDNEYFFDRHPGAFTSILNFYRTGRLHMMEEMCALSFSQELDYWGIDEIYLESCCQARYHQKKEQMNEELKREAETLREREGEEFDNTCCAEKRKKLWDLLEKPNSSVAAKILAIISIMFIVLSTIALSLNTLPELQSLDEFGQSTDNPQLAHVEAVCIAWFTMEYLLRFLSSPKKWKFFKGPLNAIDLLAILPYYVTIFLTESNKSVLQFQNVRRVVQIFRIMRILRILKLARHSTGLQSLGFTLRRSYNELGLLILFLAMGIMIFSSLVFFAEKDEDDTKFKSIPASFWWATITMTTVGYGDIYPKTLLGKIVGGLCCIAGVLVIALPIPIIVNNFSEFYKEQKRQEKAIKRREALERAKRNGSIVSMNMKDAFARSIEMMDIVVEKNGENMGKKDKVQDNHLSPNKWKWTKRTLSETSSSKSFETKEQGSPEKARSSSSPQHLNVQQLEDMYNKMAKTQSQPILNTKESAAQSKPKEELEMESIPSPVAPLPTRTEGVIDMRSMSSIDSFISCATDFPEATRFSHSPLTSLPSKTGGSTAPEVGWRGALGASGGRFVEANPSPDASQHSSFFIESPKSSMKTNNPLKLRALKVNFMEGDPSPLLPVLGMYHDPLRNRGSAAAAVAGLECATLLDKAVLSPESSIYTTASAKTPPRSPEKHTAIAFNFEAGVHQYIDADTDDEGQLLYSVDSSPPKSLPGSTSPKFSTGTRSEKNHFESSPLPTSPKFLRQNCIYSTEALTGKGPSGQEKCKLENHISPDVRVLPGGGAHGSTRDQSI

SMILES: Nc1nc2ccc(SC(F)(F)F)cc2s1 [SKA-19, 6-((trifluoromethyl)thio)benzo[d]thiazol-2-amine]
- death in the scMET test ([1]; 300 mg/kg): one animal treated with 300 mg/kg died
- protection in the scMET test ([1]; 30 and 100 mg/kg): did not provide any protection
- activity in the scMET test ([1]; mouse, in vivo): no significant activity
- block of Nav1.5 (Nav1.5): low micromolar range
- IC50 (Nav1.5; read-out: EC50 or IC50, Nav1.5): 5.8 ± 2.6 µM
- IC50 (Kv2.1): 22.3 ± 5.6 µM
- withdrawal threshold (Von Frey) (mechanical allodynia): significantly increased
- oral availability ([2]; 10 mg/kg, both vehicles (solution and methylcellulose suspension)): roughly 30%
- penetration into tissues (brain, heart, spleen, liver) ([2]; 2 h after i.p. 10 mg/kg): very effective at penetrating into tissues
- peak plasma concentration ([2]; gavage 10 mg/kg, suspension in methylcellulose): 1.6 ± 0.6 µM
- Kp at 2 h ([2]; male, Sprague-Dawley, rat, brain, ip, 10 mg/kg i.p., 2 h, read-out: brain to plasma concentration ratio): ~3
- concentration at 2 h ([2]; male, Sprague-Dawley, rat, plasma, intraperitoneal, 10 mg/kg i.p., 2 h, read-out: plasma concentration): 4.6 ± 1.3 µM
- concentration at 2 h ([2]; male, Sprague-Dawley, rat, plasma, intraperitoneal, 30 mg/kg i.p., 2 hours, read-out: total plasma concentration): 12 ± 2.21 µM
- concentration at 4 h ([2]; male, Sprague-Dawley, rat, plasma, intraperitoneal, 30 mg/kg i.p., 4 hours, read-out: total plasma concentration): 13.1 ± 2.67 µM
- half-life ([2]; male, Sprague-Dawley, rat, plasma, iv, 10 mg/kg, rats, i.v. 10 mg/kg in cremophor EL/PBS, read-out: elimination half-life t1/2 (converted)): 2.2 h
- concentration at 8 h ([2]; male, Sprague-Dawley, rat, plasma, oral solution 10 mg/kg, at 8 h): 0.4 µM
- oral availability ([2]; methylcellulose suspension as used by the ASP): about 50%
- plasma concentration ([2]; oral solution 10 mg/kg, for 5 h): around 1 μM
- sedation ([2]; rats, 30 mg/kg i.p., recovered without weight loss at 24 h): prolonged sedation
- elimination half-life t1/2 ([2]; rats, i.v. 10 mg/kg in cremophor EL/PBS): 2.16 ± 0.023 h
